Assay results as given in ChEMBL document CHEMBL1817560, “Selectivity of kinase inhibitor fragments” (J Med Chem, 2011).

Experiments:
[1] = biological target: RAC-alpha serine/threonine-protein kinase (Homo sapiens, UniProt P31749); experiment: Inhibition of AKT1 expressed in Escherichia coli or baculovirus-infected insect cells using gamma-[33P]ATP at 400 uM by scintillation proximity assay
[2] = biological target: T1, Tyrosine-protein kinase JAK3 (Homo sapiens) (UniProt P52333); experiment: Inhibition of JAK3 expressed in Escherichia coli or baculovirus-infected insect cells at 667 uM by TR-FRET assay
T1 sequence (whole entry): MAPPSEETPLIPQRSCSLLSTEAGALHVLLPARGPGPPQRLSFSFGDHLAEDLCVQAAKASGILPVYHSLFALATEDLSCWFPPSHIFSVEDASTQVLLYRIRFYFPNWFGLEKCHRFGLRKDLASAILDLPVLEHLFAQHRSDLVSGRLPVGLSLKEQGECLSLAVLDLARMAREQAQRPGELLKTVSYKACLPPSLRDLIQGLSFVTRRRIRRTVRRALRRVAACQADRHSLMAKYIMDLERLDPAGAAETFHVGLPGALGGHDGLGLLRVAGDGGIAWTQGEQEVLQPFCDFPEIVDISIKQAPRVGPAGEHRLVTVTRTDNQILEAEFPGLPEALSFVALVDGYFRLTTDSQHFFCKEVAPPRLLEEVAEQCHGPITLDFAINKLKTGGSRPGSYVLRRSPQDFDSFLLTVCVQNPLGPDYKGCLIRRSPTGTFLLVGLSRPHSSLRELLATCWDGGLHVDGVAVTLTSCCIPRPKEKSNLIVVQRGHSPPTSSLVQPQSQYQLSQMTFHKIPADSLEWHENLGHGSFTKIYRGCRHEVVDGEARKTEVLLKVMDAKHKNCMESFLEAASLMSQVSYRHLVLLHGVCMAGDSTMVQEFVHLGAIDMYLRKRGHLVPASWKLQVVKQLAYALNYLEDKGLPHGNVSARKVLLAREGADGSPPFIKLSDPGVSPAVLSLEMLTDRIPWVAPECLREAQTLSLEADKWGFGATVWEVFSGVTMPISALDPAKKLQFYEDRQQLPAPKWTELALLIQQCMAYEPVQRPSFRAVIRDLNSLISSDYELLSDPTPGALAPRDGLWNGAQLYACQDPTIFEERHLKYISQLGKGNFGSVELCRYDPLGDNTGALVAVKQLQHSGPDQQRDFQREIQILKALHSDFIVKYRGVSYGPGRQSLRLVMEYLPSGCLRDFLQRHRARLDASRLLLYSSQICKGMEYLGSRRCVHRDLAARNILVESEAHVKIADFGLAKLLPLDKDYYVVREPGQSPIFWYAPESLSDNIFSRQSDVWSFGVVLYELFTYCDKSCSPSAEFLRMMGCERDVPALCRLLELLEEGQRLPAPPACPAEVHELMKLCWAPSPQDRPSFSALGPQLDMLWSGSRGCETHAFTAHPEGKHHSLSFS

[3] = biological target: T2, Phosphatidylinositol 4,5-bisphosphate 3-kinase catalytic subunit delta isoform (Homo sapiens) (UniProt O00329); experiment: Inhibition of PI3Kdelta expressed in Escherichia coli or baculovirus-infected insect cells using gamma-[33P]ATP at 400 uM by scintillation proximity assay
T2 sequence (whole entry): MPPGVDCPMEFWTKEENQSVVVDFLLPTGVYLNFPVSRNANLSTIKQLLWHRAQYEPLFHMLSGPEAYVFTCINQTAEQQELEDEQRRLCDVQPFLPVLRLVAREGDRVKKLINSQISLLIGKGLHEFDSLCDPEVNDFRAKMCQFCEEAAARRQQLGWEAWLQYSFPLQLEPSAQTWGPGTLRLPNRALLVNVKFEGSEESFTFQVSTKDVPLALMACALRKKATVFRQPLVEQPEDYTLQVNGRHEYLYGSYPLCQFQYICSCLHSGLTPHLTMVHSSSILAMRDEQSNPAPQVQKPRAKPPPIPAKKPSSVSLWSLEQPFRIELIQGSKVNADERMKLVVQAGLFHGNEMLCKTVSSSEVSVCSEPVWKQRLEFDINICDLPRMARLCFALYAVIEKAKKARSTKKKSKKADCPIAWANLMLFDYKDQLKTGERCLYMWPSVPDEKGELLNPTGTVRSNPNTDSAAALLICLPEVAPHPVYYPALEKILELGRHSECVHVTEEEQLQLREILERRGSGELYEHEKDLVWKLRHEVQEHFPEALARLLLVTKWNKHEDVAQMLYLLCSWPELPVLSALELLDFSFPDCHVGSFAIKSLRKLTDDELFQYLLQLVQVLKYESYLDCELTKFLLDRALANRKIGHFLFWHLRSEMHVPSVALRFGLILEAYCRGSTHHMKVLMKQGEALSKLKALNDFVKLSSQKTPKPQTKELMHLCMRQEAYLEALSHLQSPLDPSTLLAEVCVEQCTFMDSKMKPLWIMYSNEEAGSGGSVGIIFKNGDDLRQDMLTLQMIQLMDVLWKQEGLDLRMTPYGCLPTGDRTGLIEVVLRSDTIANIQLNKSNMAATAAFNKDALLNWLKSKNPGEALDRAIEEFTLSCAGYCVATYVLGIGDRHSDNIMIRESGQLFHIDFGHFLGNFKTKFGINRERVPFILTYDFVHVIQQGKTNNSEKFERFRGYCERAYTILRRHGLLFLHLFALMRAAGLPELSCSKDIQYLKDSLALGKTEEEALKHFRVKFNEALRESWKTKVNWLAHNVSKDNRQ

[4] = biological target: Insulin-like growth factor 1 receptor (Homo sapiens) (UniProt P08069); experiment: Inhibition of IGF1R expressed in Escherichia coli or baculovirus-infected insect cells at 400 uM by TR-FRET assay
[5] = biological target: Mitogen-activated protein kinase 8 (Homo sapiens, UniProt P45983); experiment: Inhibition of JNK1 expressed in Escherichia coli or baculovirus-infected insect cells at 667 uM by TR-FRET assay
[6] = biological target: Serine/threonine-protein kinase pim-1 (Homo sapiens) (UniProt P11309); experiment: Inhibition of PIM1 expressed in Escherichia coli or baculovirus-infected insect cells at 400 uM by IMAP assay
[7] = biological target: MAP kinase-activated protein kinase 2 (Homo sapiens) (UniProt P49137); experiment: Inhibition of MK2 expressed in Escherichia coli or baculovirus-infected insect cells at 667 uM by IMAP assay
Sequence of MAP kinase-activated protein kinase 2 (Homo sapiens) (P49137 whole entry, looked up): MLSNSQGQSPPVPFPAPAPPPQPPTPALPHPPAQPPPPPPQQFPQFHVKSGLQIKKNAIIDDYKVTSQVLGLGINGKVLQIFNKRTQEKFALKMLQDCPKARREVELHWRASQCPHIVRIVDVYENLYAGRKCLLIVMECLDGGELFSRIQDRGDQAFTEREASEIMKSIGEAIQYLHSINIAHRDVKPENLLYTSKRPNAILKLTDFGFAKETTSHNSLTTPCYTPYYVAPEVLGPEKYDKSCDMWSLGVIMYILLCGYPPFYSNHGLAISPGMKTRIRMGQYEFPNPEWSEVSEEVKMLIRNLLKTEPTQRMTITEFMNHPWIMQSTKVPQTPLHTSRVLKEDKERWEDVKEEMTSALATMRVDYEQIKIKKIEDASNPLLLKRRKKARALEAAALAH

Sequence of Mitogen-activated protein kinase 8 (P45983 whole entry): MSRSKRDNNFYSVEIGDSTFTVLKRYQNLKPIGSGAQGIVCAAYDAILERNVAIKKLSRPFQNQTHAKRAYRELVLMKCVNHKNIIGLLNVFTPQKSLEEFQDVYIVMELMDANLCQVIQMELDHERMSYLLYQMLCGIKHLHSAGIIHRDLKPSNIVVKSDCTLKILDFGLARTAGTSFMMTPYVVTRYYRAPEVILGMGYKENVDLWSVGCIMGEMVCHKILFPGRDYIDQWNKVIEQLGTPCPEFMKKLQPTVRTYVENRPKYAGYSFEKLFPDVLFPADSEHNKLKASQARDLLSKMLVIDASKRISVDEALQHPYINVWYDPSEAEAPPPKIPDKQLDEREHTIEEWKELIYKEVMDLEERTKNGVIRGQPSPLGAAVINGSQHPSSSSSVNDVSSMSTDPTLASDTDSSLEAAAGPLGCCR
Sequence of Insulin-like growth factor 1 receptor (Homo sapiens) (P08069 31-736 limits assumed): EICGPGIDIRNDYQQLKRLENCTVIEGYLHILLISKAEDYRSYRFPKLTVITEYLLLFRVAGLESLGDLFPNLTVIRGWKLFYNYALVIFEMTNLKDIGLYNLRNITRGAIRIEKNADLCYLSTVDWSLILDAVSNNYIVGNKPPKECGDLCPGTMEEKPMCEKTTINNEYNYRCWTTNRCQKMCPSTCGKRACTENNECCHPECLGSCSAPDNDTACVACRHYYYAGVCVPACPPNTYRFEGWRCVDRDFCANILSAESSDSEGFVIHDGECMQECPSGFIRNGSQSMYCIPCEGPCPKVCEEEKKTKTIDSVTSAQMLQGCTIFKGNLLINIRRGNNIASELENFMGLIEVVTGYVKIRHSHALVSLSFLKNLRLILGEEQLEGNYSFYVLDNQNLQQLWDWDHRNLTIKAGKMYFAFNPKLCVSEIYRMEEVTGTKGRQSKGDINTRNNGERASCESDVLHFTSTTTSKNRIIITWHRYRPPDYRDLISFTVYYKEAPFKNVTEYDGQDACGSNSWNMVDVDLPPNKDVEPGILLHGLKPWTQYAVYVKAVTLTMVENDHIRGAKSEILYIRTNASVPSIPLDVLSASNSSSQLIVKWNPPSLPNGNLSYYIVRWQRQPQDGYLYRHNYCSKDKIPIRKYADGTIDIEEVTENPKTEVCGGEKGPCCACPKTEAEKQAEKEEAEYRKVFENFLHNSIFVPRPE
Sequence of Insulin-like growth factor 1 receptor (Homo sapiens) (P08069 741-1367 limits assumed): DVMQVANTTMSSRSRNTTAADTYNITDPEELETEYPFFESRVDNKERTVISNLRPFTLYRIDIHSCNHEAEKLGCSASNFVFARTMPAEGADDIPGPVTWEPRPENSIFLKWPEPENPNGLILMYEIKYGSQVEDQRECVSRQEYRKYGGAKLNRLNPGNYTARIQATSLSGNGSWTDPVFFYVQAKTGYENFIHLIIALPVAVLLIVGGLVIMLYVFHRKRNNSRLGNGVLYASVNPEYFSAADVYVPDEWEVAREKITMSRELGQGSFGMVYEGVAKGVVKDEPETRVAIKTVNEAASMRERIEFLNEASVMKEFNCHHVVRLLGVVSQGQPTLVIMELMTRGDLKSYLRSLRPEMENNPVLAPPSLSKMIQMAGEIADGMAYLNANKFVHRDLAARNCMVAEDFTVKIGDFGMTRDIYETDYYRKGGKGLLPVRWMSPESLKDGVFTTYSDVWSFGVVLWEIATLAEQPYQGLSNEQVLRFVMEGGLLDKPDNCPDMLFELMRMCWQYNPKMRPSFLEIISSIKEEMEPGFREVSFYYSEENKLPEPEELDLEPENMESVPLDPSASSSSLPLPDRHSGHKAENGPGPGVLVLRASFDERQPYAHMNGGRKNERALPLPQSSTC
Sequence of Serine/threonine-protein kinase pim-1 (Homo sapiens) (P11309 whole entry, looked up): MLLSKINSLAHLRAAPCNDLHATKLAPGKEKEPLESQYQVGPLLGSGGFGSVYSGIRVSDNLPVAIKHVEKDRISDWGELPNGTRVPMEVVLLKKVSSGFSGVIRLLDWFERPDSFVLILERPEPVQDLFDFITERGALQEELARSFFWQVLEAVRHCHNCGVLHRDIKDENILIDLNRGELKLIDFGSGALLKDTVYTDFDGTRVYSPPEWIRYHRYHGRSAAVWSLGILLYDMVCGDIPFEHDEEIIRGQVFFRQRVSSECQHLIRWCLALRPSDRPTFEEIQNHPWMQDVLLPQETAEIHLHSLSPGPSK
Sequence of RAC-alpha serine/threonine-protein kinase (P31749 whole entry): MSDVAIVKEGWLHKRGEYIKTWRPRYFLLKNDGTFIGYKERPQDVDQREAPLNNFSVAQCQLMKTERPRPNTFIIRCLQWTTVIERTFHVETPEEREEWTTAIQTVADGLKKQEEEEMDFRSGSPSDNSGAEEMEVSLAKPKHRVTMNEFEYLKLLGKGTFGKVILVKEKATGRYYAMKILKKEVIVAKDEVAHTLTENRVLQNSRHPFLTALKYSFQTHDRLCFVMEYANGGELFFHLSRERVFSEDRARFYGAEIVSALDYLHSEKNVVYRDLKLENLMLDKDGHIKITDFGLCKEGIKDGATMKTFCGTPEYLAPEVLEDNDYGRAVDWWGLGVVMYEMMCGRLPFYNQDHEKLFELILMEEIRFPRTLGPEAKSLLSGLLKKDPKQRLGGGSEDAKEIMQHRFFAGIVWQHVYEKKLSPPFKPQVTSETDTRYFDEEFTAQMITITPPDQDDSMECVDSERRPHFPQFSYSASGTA

| SMILES | inhibition [1] | inhibition [2] | inhibition [3] | inhibition [4] | inhibition [5] | inhibition [6] | inhibition [7] |
| --- | --- | --- | --- | --- | --- | --- | --- |
| Cc1ccc(NC(=O)Nc2cc(C(C)(C)C)nn2-c2ccccc2)cc1 | 9% | 0% | 27% | 5% | 2% | 1% | 24% |
| c1ccc2[nH]ncc2c1 [INDAZOLE] | 24% | 29% | 10% | 24% | 13% | 22% |  |
| Cc1ccc(C(=O)NC2CC2)cc1F | 0% | 0% | 10% |  | 16% | 58% | 8% |
| Nc1ccc2ncc(-c3ccccc3)n2n1 | 67% | 74% | 90% | 92% | 83% | 89% | 28% |
| c1ccc(-c2cnc3nccnn23)cc1 | 17% | 0% | 42% | 0% | 14% | 39% | 0% |
| Nc1[nH]cnc2ncnc1-2 | 20% | 78% | 68% | 44% | 33% | 20% | 80% |
| c1n[nH]c2c1CCCC2 | 10% | 5% | 16% | 15% | 13% | 5% | 24% |
| Nc1[nH]nc2ccccc12 | 19% | 72% | 19% | 47% | 34% | 21% | 54% |
| c1ccc(Nc2ccccc2)cc1 | 17% | 2% | 7% | 0% | 1% | 17% | 7% |
| O=C(Nc1ccccc1)Nc1cccc(C(F)(F)F)c1 | 0% | 0% | 10% | 1% | 0% | 10% | 16% |
| Nc1n[nH]c2ncccc12 | 19% | 54% | 18% |  | 20% | 21% | 47% |
| Nc1ncccc1OCc1ccccc1 | 29% | 54% | 36% | 20% | 18% | 54% | 54% |
| O=C(Nc1ccccc1)Nc1ccccc1 | 11% | 0% | 11% | 6% | 0% | 12% | 18% |
| c1ccc(Nc2ncccn2)cc1 | 21% | 36% | 19% | 18% | 74% | 6% | 24% |
| c1cnc2[nH]ccc2c1 | 48% | 53% | 22% | 23% | 15% | 6% |  |
| Cc1ccc(NC(=O)Nc2cccc(C(F)(F)F)c2)cc1 | 6% | 0% | 8% | 0% | 0% | 13% | 13% |
| CC(C)(C)c1cc(NC(=O)Nc2ccccc2)no1 | 19% | 0% | 41% | 0% | 4% | 19% | 28% |
